Laboratory results: ChEMBL document CHEMBL6083249, “The journey of p38 MAP kinase inhibitors: From bench to bedside in treating inflammatory diseases” (Eur J Med Chem, 2024)

Legend:
[1] = target: Protein kinase C beta type (Homo sapiens, UniProt P05771); test: Inhibition of PKCbeta2 (unknown origin)
[2] = target: T1, Protein kinase C alpha type (Homo sapiens, UniProt P17252); test: Inhibition of PKCalpha (unknown origin)
[3] = Tmax in Wistar rat at 10 mg/kg, po by LC-MS/MS analysis; assay type: ADME, organism-based; conditions: in vivo
THP-1 [4] = test: Anti-inflammatory activity in human THP-1 cells assessed as inhibition of IL-1beta protein expression incubated for 24 hrs by Western blot analysis; assay type: functional, cell-based; conditions: THP-1, 24 h
[5] = Half life in Sprague-Dawley rat at 10 mg/kg, po by LC-MS analysis; assay type: ADME, organism-based; conditions: in vivo
[6] = Oral bioavailability in Sprague-Dawley rat at 10 mg/kg by LC-MS analysis; assay type: ADME, organism-based; conditions: in vivo
THP-1 [7] = test: Antiinflammatory activity against human THP-1 cells assessed as inhibition of LPS-induced TNF-alpha production; assay type: functional, cell-based
[8] = Cmax in Wistar rat at 10 mg/kg, po by LC-MS/MS analysis; assay type: ADME, organism-based; conditions: in vivo
[9] = Clearance in Sprague-Dawley rat at 10 mg/kg, iv by HPLC-MS analysis; assay type: ADME, organism-based; conditions: in vivo
[10] = AUC in Sprague-Dawley rat at 10 mg/kg, po measured for 24 hrs by LC-MS/MS analysis; assay type: ADME, organism-based; conditions: in vivo
RAW264.7 = test: Anti-inflammatory activity in LPS-induced mouse RAW264.7 cells assessed as inhibition of IL-6 production; assay type: functional, cell-based
[11] = Volume of distribution at steady state in Sprague-Dawley rat at 10 mg/kg, iv measured for 24 hrs by LC-MS/MS analysis; assay type: ADME, organism-based; conditions: in vivo, read-out: Vdss
[12] = target: Dual specificity tyrosine-phosphorylation-regulated kinase 1A (Homo sapiens) (UniProt Q13627); test: Inhibition of DYRK1A (unknown origin) at 10 uM relative to control; conditions: values are per cent of control
Homo sapiens [13] = species: Homo sapiens; test: Inhibition of CK1 (unknown origin) at 1 uM relative to control; conditions: values are per cent of control
[14] = target: Dual specificity tyrosine-phosphorylation-regulated kinase 1A (Homo sapiens) (UniProt Q13627); test: Inhibition of DYRK1A (unknown origin) at 1 uM relative to control; conditions: values are per cent of control
[15] = target: Casein kinase 2 (Homo sapiens) (UniProt P67870+P68400+P19784+Q8NEV1); test: Inhibition of CK2 (unknown origin) at 1 uM relative to control; assay type: protein assay; conditions: values are per cent of control
[16] = target: T1, Protein kinase C alpha type; test: Inhibition of PKCalpha (unknown origin) at 1 uM in presence of ATP relative to control; conditions: values are per cent of control
Homo sapiens [17] = species: Homo sapiens; test: Inhibition of CK1 (unknown origin) at 10 uM relative to control; conditions: values are per cent of control
Homo sapiens [18] = species: Homo sapiens; test: Inhibition of PKA (unknown origin) at 1 uM relative to control; conditions: values are per cent of control
[19] = target: Rho-associated protein kinase 2 (Homo sapiens) (UniProt O75116); test: Inhibition of ROCK2 (unknown origin) at 1 uM relative to control; conditions: values are per cent of control
[20] = target: Serine/threonine-protein kinase Sgk1 (Homo sapiens) (UniProt O00141); test: Inhibition of SGK1 (unknown origin) at 1 uM by Z'LYTE kinase assay relative to control; conditions: values are per cent of control
[21] = target: Mitogen-activated protein kinase 8 (Homo sapiens) (UniProt P45983); test: Inhibition of JNK1alpha1 (unknown origin) at 1 uM relative to control; conditions: values are per cent of control
[22] = target: Ribosomal protein S6 kinase beta-1 (Homo sapiens) (UniProt P23443); test: Inhibition of S6K1 (unknown origin) at 1 uM relative to control; conditions: values are per cent of control
[23] = target: Dual specificity mitogen-activated protein kinase kinase 1 (Homo sapiens) (UniProt Q02750); test: Inhibition of MKK1 (unknown origin) at 1 uM relative to control; conditions: values are per cent of control
[24] = target: MAP kinase-activated protein kinase 5 (Homo sapiens) (UniProt Q8IW41); test: Inhibition of PRAK (unknown origin) at 1 uM relative to control; conditions: values are per cent of control
[25] = target: Mitogen-activated protein kinase 1 (Homo sapiens) (UniProt P28482); test: Inhibition of ERK2 (unknown origin) at 1 uM relative to control; conditions: values are per cent of control
[26] = target: Ribosomal protein S6 kinase alpha-1 (Homo sapiens) (UniProt Q15418); test: Inhibition of RSK1 (unknown origin) at 1 uM relative to control; conditions: values are per cent of control
[27] = target: cGMP-inhibited 3',5'-cyclic phosphodiesterase 3A (Homo sapiens) (UniProt Q14432); test: Inhibition of PDE3A (unknown origin) at 10 uM relative to control
[28] = target: 3',5'-cyclic-AMP phosphodiesterase 4C (Homo sapiens, UniProt Q08493); test: Inhibition of PDE4C (unknown origin)
[29] = target: 3',5'-cyclic-AMP phosphodiesterase 4B (Homo sapiens, UniProt Q07343); test: Inhibition of PDE4B1 (unknown origin)
[30] = target: cGMP-specific 3',5'-cyclic phosphodiesterase (Homo sapiens) (UniProt O76074); test: Inhibition of human PDE5 at 10 uM relative to control
[31] = Half life in Beagle dog at 5 mg/kg, po by LC-MS/MS analysis; assay type: ADME, organism-based, Canis lupus familiaris; conditions: in vivo
[32] = Clearance in dog; assay type: ADME, Canis lupus familiaris; conditions: in vivo
[33] = Clearance in rat; assay type: ADME; conditions: in vivo

Chain of Serine/threonine-protein kinase Sgk1 (Homo sapiens) (O00141 whole entry): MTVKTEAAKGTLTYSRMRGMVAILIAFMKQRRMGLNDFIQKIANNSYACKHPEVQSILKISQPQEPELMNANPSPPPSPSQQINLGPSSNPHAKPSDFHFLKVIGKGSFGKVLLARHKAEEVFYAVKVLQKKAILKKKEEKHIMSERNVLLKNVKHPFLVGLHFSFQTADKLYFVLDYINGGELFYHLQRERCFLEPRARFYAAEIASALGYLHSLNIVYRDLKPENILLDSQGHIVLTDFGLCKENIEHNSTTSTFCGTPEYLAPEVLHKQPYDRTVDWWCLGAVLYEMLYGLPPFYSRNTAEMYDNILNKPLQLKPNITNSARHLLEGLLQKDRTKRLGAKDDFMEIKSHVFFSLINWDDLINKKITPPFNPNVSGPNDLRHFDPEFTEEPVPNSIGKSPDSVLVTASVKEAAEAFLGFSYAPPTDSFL
Chain of Protein kinase C beta type (P05771 whole entry): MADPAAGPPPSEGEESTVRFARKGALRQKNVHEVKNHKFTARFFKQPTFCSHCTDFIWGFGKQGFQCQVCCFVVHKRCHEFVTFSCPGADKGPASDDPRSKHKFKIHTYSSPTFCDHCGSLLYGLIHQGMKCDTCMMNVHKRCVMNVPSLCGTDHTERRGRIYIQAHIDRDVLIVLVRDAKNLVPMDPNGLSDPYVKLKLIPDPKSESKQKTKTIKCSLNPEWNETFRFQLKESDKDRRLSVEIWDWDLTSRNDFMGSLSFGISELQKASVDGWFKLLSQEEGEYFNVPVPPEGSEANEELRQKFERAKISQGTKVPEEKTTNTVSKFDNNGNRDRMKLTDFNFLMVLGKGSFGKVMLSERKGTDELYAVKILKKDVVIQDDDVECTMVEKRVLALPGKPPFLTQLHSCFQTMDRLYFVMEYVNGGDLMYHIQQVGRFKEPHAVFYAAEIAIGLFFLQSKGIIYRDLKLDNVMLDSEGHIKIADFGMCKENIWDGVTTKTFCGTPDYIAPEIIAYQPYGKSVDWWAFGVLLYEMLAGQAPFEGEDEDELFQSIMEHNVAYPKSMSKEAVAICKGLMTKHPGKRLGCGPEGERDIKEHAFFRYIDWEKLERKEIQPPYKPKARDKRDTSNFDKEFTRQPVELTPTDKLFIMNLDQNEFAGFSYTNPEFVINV
Chain of Ribosomal protein S6 kinase alpha-1 (Homo sapiens) (Q15418 whole entry): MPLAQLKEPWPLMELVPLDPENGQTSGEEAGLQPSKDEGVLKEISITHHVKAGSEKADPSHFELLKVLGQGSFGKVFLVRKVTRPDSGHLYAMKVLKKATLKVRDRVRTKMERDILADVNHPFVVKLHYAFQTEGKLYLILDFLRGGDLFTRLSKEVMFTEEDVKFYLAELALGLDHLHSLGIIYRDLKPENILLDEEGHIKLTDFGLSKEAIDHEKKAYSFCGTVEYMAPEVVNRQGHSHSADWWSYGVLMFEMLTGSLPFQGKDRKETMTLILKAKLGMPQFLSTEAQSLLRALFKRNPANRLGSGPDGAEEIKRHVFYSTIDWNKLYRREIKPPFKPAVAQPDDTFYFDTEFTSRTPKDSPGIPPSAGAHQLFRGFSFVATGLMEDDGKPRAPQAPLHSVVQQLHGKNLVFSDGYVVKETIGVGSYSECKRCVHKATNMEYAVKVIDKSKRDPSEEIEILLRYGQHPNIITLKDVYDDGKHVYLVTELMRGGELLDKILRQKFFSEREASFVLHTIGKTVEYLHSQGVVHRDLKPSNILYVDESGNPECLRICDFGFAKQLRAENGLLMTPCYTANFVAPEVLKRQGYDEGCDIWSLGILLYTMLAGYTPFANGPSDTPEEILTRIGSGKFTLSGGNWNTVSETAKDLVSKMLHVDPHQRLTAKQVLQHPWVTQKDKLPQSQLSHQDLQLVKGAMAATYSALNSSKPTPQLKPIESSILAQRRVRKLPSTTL
Chain of 3',5'-cyclic-AMP phosphodiesterase 4C (Q08493 whole entry): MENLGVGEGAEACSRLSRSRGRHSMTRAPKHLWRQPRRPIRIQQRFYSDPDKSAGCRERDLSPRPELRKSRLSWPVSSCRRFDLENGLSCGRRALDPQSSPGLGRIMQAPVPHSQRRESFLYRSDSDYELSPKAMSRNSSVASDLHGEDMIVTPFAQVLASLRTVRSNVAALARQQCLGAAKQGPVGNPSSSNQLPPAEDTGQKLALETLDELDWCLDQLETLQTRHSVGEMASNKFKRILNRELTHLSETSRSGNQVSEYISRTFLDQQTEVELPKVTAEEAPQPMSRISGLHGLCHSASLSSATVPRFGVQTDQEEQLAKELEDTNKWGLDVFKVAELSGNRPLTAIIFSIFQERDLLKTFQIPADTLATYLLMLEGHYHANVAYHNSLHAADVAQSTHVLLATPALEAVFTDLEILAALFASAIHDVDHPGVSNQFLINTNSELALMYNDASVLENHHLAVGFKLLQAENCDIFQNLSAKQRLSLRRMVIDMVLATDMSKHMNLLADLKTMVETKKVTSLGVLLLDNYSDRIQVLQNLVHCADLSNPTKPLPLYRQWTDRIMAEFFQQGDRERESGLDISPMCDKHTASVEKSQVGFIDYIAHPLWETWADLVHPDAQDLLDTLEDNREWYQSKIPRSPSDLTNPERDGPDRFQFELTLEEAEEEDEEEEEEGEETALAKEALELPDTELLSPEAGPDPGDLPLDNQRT
Chain of MAP kinase-activated protein kinase 5 (Homo sapiens) (Q8IW41 whole entry): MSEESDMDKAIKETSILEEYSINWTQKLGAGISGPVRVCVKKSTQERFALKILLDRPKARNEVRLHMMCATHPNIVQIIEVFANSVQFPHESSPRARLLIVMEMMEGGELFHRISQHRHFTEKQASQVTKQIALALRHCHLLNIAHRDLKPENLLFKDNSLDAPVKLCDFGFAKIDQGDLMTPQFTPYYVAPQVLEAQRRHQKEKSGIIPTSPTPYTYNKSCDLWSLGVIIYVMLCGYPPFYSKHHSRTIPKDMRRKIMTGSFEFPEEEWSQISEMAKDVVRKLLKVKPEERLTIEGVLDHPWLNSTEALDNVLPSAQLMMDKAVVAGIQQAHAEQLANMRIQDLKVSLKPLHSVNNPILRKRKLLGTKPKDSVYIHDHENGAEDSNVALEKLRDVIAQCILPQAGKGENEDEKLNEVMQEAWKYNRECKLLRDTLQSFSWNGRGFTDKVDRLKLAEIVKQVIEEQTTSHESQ
Chain of Ribosomal protein S6 kinase beta-1 (Homo sapiens) (P23443 whole entry, looked up): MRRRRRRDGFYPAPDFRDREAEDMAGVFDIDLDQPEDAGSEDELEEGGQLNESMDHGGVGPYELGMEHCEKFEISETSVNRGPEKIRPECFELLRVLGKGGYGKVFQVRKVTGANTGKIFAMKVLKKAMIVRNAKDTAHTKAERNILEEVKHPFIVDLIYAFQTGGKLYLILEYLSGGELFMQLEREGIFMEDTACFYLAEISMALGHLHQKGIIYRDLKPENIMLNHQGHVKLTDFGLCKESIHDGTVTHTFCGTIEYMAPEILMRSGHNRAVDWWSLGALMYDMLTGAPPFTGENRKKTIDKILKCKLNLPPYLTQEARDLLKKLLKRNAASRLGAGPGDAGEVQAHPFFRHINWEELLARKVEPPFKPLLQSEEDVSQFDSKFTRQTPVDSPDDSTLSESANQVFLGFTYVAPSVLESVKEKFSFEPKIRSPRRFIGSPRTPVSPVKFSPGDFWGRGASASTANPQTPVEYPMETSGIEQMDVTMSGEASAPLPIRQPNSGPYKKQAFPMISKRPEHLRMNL
Chain of Mitogen-activated protein kinase 1 (Homo sapiens) (P28482 whole entry): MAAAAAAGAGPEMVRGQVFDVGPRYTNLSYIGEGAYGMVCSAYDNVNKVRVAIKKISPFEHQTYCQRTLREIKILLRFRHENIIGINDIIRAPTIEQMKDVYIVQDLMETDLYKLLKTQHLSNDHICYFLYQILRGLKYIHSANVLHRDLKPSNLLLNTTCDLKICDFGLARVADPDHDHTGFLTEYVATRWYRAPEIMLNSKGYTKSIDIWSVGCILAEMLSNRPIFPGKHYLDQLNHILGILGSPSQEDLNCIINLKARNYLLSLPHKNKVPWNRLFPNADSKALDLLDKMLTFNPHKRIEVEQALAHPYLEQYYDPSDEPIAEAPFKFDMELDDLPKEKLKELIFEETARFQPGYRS
Chain of 3',5'-cyclic-AMP phosphodiesterase 4B (Q07343 whole entry): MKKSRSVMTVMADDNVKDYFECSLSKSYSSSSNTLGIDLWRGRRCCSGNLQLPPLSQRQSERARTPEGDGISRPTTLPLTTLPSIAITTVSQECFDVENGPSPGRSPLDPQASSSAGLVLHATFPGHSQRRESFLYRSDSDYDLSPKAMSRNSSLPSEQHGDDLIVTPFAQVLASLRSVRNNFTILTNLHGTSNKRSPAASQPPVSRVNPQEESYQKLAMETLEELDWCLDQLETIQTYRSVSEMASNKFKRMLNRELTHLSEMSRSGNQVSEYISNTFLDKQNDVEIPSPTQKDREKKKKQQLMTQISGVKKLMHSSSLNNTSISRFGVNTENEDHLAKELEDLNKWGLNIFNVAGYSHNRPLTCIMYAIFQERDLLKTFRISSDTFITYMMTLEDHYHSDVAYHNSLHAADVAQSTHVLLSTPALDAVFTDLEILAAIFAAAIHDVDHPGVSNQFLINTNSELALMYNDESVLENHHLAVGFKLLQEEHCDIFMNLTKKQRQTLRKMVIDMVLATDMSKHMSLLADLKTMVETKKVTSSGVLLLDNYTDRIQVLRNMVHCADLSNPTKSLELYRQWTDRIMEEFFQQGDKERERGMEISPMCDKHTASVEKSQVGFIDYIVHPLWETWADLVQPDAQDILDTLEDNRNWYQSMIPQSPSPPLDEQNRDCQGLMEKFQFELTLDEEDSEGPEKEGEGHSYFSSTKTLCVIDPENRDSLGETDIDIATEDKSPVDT

C[S+]([O-])c1ccc(-c2nc(-c3ccncc3)c(-c3ccc(F)cc3)[nH]2)cc1 (centres undefined) [SB-203580]
IC50 [1]: > 50 µM | IC50 [2]: > 100 µM

Cn1c(=O)c(Oc2ccc(F)cc2F)cc2cnc(NC(CCO)CCO)nc21 [PAMAPIMOD]
Tmax [3]: 30 min | IC50 (THP-1 [4]): 100 nM | half-life [5]: 242 min | bioavailability [6]: 80.1% | IC50 (THP-1 [7]): 300 nM | Cmax [8]: 1340 ng/mL | clearance [9]: 21 mL/min/kg | AUC [10]: 3.13 µg/h/mL | EC50 (RAW264.7): 50 nM | Vd [11]: 3.56 L/kg

Cc1ccc(-n2nc(C(C)(C)C)cc2NC(=O)Nc2ccc(OCCN3CCOCC3)c3ccccc23)cc1
residual activity [12]: 79% | residual activity (Homo sapiens [13]): 87% | residual activity [14]: 82% | residual activity [15]: 85% | residual activity [16]: 80% | residual activity (Homo sapiens [17]): 84% | residual activity (Homo sapiens [18]): 88% | residual activity [19]: 80% | residual activity [20]: 94% | residual activity [21]: 70% | residual activity [22]: 119% | residual activity [23]: 71% | residual activity [24]: 71% | residual activity [25]: 79% | residual activity [26]: 59%

Cn1c([S+](C)[O-])nc(-c2ccc(F)cc2)c1-c1ccnc(N)c1 (centres undefined)
inhibition [27]: 30% | IC50 [28]: > 10 µM | IC50 [29]: 3.5 µM | inhibition [30]: 30%

O=C(CO)N1CCC(c2[nH]nc(-c3ccc(Cl)cc3)c2-c2ccncn2)CC1 [SD-0006]
half-life [31]: 269 min | clearance [32]: 2.92 mL/min/kg | clearance [33]: 4.86 mL/min/kg
